According to US20240368092A1, “2,4-Dihydro-3H-1,2,4-Triazol-3-One P2X7 Antagonists” (Breye Therapeutics ApS, priority 2021, published 2024):
pIC50: −log10 of the molar value.

Key:
Assay type in all cases: cell-based
human P2X7 channel = target: T1, human P2X7 channel (Homo sapiens, UniProt Q99572); experiment: human P2X7 channel assay by automated patch-clamp (QPatch 16X); settings: HEK-293 cells expressing P2X7; current evoked by 100 microM BzATP; whole-cell, held at -80 mV; read-out: human Q-Patch (activity range)
T1 construct: expressed in transfected cells; host or cells: HEK-293
T1 sequence (Q99572 1-595): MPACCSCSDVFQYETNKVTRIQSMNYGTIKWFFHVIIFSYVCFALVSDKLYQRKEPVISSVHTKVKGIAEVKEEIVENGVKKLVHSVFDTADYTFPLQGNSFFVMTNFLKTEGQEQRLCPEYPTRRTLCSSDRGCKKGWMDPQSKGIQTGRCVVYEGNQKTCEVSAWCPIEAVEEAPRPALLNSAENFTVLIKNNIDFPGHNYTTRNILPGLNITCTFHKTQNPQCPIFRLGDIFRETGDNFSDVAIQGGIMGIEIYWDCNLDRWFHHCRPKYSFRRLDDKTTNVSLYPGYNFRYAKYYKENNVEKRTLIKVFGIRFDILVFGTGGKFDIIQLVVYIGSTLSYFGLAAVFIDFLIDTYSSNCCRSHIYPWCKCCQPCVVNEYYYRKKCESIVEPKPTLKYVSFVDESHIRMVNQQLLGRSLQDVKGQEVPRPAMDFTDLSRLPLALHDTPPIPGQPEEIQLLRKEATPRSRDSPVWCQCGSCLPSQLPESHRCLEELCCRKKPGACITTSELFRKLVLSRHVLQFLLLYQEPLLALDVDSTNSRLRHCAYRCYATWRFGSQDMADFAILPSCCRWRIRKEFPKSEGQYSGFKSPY
Summary of the method: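 Whole-cell patch clamp on HEK-293 cells expressing P2X7, room temperature, held at −80 mV, CsF internal and NaCl external (pH 7.4). Currents evoked by 100 microM BzATP, four controls then with compound at 1, 10, 100 and 1000 nM; peak inward current normalized, IC50 from dose-response fit, reported as potency bins.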

mouseP2X7 = target: T2, mouseP2X7 (Mus musculus, UniProt Q9Z1M0); experiment: P2X7 channel calcium-influx assay (Fluo-8, FLIPR TETRA), mouse P2X7; settings: HEK-293 cells stably transfected with P2X7; Bz-ATP at EC80; low divalent cation buffer; read-out: mouseP2X7 (activity range)
T2 construct: expressed in transfected cells; host or cells: HEK-293
T2 sequence (Q9Z1M0 1-595): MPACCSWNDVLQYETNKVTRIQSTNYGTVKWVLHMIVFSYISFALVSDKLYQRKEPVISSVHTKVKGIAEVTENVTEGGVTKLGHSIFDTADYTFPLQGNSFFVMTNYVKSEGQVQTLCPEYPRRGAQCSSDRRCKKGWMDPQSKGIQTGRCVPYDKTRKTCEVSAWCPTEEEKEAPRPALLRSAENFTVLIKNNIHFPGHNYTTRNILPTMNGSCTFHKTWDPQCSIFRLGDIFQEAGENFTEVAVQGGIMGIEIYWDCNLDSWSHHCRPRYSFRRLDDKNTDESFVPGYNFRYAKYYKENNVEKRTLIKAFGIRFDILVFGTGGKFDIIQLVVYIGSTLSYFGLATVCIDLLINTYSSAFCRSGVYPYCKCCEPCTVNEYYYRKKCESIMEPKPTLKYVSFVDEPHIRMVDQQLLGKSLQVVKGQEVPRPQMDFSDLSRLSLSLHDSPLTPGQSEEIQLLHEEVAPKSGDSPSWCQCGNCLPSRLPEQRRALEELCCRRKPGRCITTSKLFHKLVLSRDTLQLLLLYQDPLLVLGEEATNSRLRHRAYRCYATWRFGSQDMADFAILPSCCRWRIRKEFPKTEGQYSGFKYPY
Summary of the method: (§1)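 HEK-293 cells stably expressing the respective species' P2X7, Fluo-8 NW loaded 1 h at RT in low divalent buffer (0.3 mM Ca2+, 0 mM Mg2+). Compound preincubated 5 min, then Bz-ATP at EC80; FLIPR calcium influx over 3 min. IC50 from % inhibition relative to reference antagonist A438079, reported as potency bins.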

humanP2X7 = target: T3, humanP2X7 (Homo sapiens, UniProt Q99572); experiment: P2X7 channel calcium-influx assay (Fluo-8, FLIPR TETRA), human P2X7; settings: HEK-293 cells stably transfected with P2X7; Bz-ATP at EC80; low divalent cation buffer; read-out: humanP2X7 (activity range)
T3 construct: expressed in transfected cells; host or cells: HEK-293
T3 sequence (Q99572 1-595): T1 sequence (Q99572 1-595)
Summary of the method: as §1

ratP2X7 = target: T4, ratP2X7 (Rattus norvegicus, UniProt Q64663); experiment: P2X7 channel calcium-influx assay (Fluo-8, FLIPR TETRA), rat P2X7; settings: HEK-293 cells stably transfected with P2X7; Bz-ATP at EC80; low divalent cation buffer; read-out: ratP2X7 (activity range)
T4 construct: expressed in transfected cells; host or cells: HEK-293
T4 sequence (Q64663 1-595): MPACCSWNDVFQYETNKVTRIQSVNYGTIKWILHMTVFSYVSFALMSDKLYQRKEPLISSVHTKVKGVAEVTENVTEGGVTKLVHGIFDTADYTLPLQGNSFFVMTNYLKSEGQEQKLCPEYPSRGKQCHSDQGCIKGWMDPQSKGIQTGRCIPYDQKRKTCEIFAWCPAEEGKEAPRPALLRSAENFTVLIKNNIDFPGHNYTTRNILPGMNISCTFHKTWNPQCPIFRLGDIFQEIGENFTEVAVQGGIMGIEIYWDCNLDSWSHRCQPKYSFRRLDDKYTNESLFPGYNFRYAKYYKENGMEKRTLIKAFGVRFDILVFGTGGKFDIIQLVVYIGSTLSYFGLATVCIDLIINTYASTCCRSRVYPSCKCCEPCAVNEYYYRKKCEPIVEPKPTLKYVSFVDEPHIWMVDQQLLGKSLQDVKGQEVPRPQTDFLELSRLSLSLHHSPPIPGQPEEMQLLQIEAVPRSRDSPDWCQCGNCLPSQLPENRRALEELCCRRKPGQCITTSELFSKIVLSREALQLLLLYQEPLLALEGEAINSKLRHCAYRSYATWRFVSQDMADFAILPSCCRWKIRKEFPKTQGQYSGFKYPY
Summary of the method: as §1

| SMILES | pIC50 (human P2X7 channel) | pIC50 (mouseP2X7) | pIC50 (humanP2X7) | pIC50 (ratP2X7) |
| --- | --- | --- | --- | --- |
| Cn1nc(Cc2ccc(F)cc2Cl)n(CC2CCCCCC2)c1=O [Example 11, 5-(2-chloro-4-fluorobenzyl)-4-(cycloheptylmethyl)-2-methyl-2,4-dihydro-3H-1,2,4-triazol-3-one] | 7.00 to 8.00 | 6.00 to 6.70 | > 6.70 | > 6.70 |
| Cn1nc(Cc2c(F)cccc2Cl)n(CC2CC3C(C2)C3(F)F)c1=O (stereo not shown) [Example 5, 5-(2-chloro-6-fluorobenzyl)-4-((6,6-difluorobicyclo[3.1.0]hexan-3-yl)methyl)-2-methyl-2,4-dihydro-3H-1,2,4-triazol-3-one] | 7.00 to 8.00 | 5.00 to 6.00 | 6.00 to 6.70 | > 6.70 |
| Cn1nc(Cc2ccccc2C(F)(F)F)n(CC2CCCCCC2)c1=O [Example 28, 4-(cycloheptylmethyl)-2-methyl-5-(2-(trifluoromethyl)benzyl)-2,4-dihydro-3H-1,2,4-triazol-3-one] | 6.00 to 7.00 | 5.00 to 6.00 | 6.00 to 6.70 | > 6.70 |
| Cn1nc(Cc2ccccc2F)n(CCC2CCC(C)(C)CC2)c1=O [Example 45, 4-(2-(4,4-dimethylcyclohexyl)ethyl)-5-(2-fluorobenzyl)-2-methyl-2,4-dihydro-3H-1,2,4-triazol-3-one] | 5.00 to 6.00 | 4.52 to 5.00 | 5.00 to 6.00 | 5.00 to 6.00 |
| Cc1ncccc1Cn1c(CC2CCCCC2)nn(C)c1=O [Example 31, 5-(cyclohexylmethyl)-2-methyl-4-((2-methylpyridin-3-yl)methyl)-2,4-dihydro-3H-1,2,4-triazol-3-one] | 6.00 to 7.00 | 4.52 to 5.00 | 5.00 to 6.00 | 5.00 to 6.00 |
| Cn1nc(Cc2ccccc2C(F)(F)F)n(CCC2CCC(C)(C)CC2)c1=O [Example 49, 4-(2-(4,4-dimethylcyclohexyl)ethyl)-2-methyl-5-(2-(trifluoromethyl)benzyl)-2,4-dihydro-3H-1,2,4-triazol-3-one] | 5.00 to 6.00 | 4.52 to 5.00 | 5.00 to 6.00 | 4.52 to 5.00 |
| Cn1nc(Cc2c(F)cccc2Cl)n(CCC2CCC(C)(C)CC2)c1=O [Example 16, 5-(2-chloro-6-fluorobenzyl)-4-(2-(4,4-dimethylcyclohexyl)ethyl)-2-methyl-2,4-dihydro-3H-1,2,4-triazol-3-one] | 7.00 to 8.00 | 5.00 to 6.00 | 6.00 to 6.70 | 6.00 to 6.70 |
| O=c1n(CC2CC2)nc(Cc2c(F)cccc2Cl)n1CC1CCC(C(F)(F)F)CC1 (stereo not shown) [Example 69, 5-(2-chloro-6-fluorobenzyl)-2-(cyclopropylmethyl)-4-((4-(trifluoromethyl)cyclohexyl)methyl)-2,4-dihydro-3H-1,2,4-triazol-3-one] | 7.00 to 8.00 | 6.00 to 6.70 | > 6.70 | > 6.70 |
| Cn1nc(Cc2ccccc2F)n(CC2CCC(C(F)(F)F)CC2)c1=O (stereo not shown) [Example 51, 5-(2-fluorobenzyl)-2-methyl-4-((4-(trifluoromethyl)cyclohexyl)methyl)-2,4-dihydro-3H-1,2,4-triazol-3-one] | 6.00 to 7.00 | 5.00 to 6.00 | 6.00 to 6.70 | > 6.70 |
| Cn1nc(CC2CCCCC2)n(Cc2c(F)cccc2Cl)c1=O [Example 24, 4-(2-chloro-6-fluorobenzyl)-5-(cyclohexylmethyl)-2-methyl-2,4-dihydro-3H-1,2,4-triazol-3-one] | 6.00 to 7.00 | 5.00 to 6.00 | 6.00 to 6.70 | > 6.70 |

The remaining lines, values ahead:

| pIC50 (human P2X7 channel) | pIC50 (mouseP2X7) | pIC50 (humanP2X7) | pIC50 (ratP2X7) | SMILES |
| --- | --- | --- | --- | --- |
| > 8.00 | > 6.70 | > 6.70 | > 6.70 | O=c1n(CC(F)(F)F)nc(Cc2ccccc2Cl)n1CC1CCC(F)(F)CC1 [Example 62, 5-[(2-chlorophenyl)methyl]-4-[(4,4-difluorocyclohexyl)methyl]-2-(2,2,2-trifluoroethyl)-2,4-dihydro-3H-1,2,4-triazol-3-one] |
| 5.00 to 6.00 | 5.00 to 6.00 | 5.00 to 6.00 | 6.00 to 6.70 | CN1CCCCC1Cn1c(Cc2c(F)cccc2Cl)nn(CC(F)(F)F)c1=O (stereo not shown) [Example 68, 5-[(2-chloro-6-fluorophenyl)methyl]-4-[(1-methylpiperidin-2-yl)methyl]-2-(2,2,2-trifluoroethyl)-2,4-dihydro-3H-1,2,4-triazol-3-one] |
| 7.00 to 8.00 | > 6.70 | > 6.70 | > 6.70 | O=c1n(CC(F)(F)F)nc(Cc2c(F)cccc2Cl)n1CC1CCCCCC1 [Example 67, 5-[(2-chloro-6-fluorophenyl)methyl]-4-(cycloheptylmethyl)-2-(2,2,2-trifluoroethyl)-2,4-dihydro-3H-1,2,4-triazol-3-one] |
| > 8.00 | > 6.70 | > 6.70 | > 6.70 | O=c1n(Cc2ccccc2)nc(Cc2c(F)cccc2Cl)n1CC1CCC(F)(F)CC1 [Example 50, 2-benzyl-5-(2-chloro-6-fluorobenzyl)-4-((4,4-difluorocyclohexyl)methyl)-2,4-dihydro-3H-1,2,4-triazol-3-one] |
| 6.00 to 7.00 | 5.00 to 6.00 | 6.00 to 6.70 | > 6.70 | Cn1nc(Cc2ccccc2C(F)(F)F)n(CC2CCC3(CC2)CC3)c1=O [Example 48, 2-methyl-4-(spiro[2.5]octan-6-ylmethyl)-5-(2-(trifluoromethyl)benzyl)-2,4-dihydro-3H-1,2,4-triazol-3-one] |
| 7.00 to 8.00 | > 6.70 | > 6.70 | > 6.70 | CCn1nc(Cc2c(F)cccc2Cl)n(CC2CCC(F)(F)CC2)c1=O [Example 34, 5-(2-chloro-6-fluorobenzyl)-4-((4,4-difluorocyclohexyl)methyl)-2-ethyl-2,4-dihydro-3H-1,2,4-triazol-3-one] |
